# Reference: US20240360178A1, “MACROCYCLIC IMMUNOMODULATORS” (Bristol-Myers Squibb Company, priority 2021, published 2024)
# Positions of bridges follow the written chain, without caps; N, C: chain ends. Non-standard residues stand in square brackets, D forms with d. Residues, ends and D or L forms follow the SMILES beside them. ξ: configuration not given here. *: point of attachment. Phe(3-CF3) = N[C@@H](Cc1cccc(C(F)(F)F)c1)C(=O)O; Bip = N[C@@H](Cc1ccc(-c2ccccc2)cc1)C(=O)O; NMeY = CN[C@@H](Cc1ccc(O)cc1)C(=O)O; NMeF = CN[C@@H](Cc1ccccc1)C(=O)O; 3Pal = N[C@@H](Cc1cccnc1)C(=O)O; 4Pal = N[C@@H](Cc1ccncc1)C(=O)O; Cha = N[C@@H](CC1CCCCC1)C(=O)O; Cit = NC(=O)NCCC[C@H](N)C(=O)O; Thr(3ξ) = CC(O)[C@H](N)C(=O)O; Carboxymethyl = O=C(O)C*; NMeA = CN[C@@H](C)C(=O)O; Orn = NCCC[C@H](N)C(=O)O; Dab = NCC[C@H](N)C(=O)O; Dap = NC[C@H](N)C(=O)O; ξV = CC(C)C(N)C(=O)O; Sar = CNCC(=O)O
# Molecular target: T1, human PD-1 (Jurkat-PD-1 cells) / PE-labeled human PD-L1-Ig (Homo sapiens, UniProt Q15116)
# T1 construct: expressed in transfected cells; host or cells: Jurkat cell line over-expressing human PD-1
# T1 sequence (Q15116 25-288): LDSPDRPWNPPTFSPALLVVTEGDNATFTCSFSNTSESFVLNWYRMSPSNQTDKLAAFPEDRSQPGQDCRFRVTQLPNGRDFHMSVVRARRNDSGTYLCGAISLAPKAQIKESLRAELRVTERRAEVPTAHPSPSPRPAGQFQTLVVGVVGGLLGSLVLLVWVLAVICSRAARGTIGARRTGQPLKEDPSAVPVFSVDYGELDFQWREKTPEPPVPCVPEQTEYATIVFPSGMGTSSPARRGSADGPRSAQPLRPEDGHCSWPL
# Experiment: Jurkat-PD-1 Cell Binding High-Content Screening Assay (CBA); Jurkat hPD1-PDL1 assay
# Conditions: Jurkat cell line over-expressing human PD-1; PE-labeled PD-L1-Ig 20 nM final; compound incubated 2 hours at 37° C.; read-out: Jurkat HPD1-PDL1 IC50
# Description: The ability of the compounds of formula (I) to bind to PD-1 was investigated using a Jurkat-PD-1 Cell Binding High-Content Screening Assay.
# Jurkat-PD-1 Cell Binding High-Content Screening Assay (CBA)
# Phycoerythrin (PE) was covalently linked to the Ig epitope tag of human PD-L1-Ig and fluorescently-labeled PD-L1-Ig was used for binding studies with a Jurkat cell line over-expressing human PD-1 (Jurkat-PD-1). Briefly, 8×10^3 Jurkat-hPD-1 cells were seeded into 384 well plates in 20 μL of DMEM supplemented with 10% fetal calf serum. 100 nL of compound was added to cells followed by incubation at 37° C. for 2 hours. Then, 5 μL of PE-labeled PD-L1-Ig (20 nM final), diluted in DMEM supplemented with 10% fetal calf serum. […] Data was collected and processed using a Cell Insight NXT High Content Imager and associated software.
row,Structure (SMILES),IC50 [nM]
1,CC(C)C[C@@H]1NC(=O)[C@H](CCCN)NC(=O)[C@H](Cc2ccccc2)N(C)C(=O)[C@H](C)N(C)C(=O)[C@H](CCCNC(=N)N)NC(=O)[C@H](Cc2ccc(-c3ccccc3)cc2)NC(=O)[C@H](C(C)C)NC(=O)[C@H](Cc2c[nH]c3ccccc23)NC(=O)[C@H](CC(=O)O)NC(=O)[C@H](Cc2ccc(O)cc2)NC(=O)[C@H](CC(N)=O)NC(=O)CSC[C@@H](C(=O)N[C@@H](CCC(=O)O)C(N)=O)NC(=O)[C@H]([C@@H](C)O)NC(=O)[C@H](C(C)C)NC1=O [Example 1352] ({CH2CO}-NYDWV[Bip]R[NMeA][NMeF][Orn]LVTCE-NH2; thioether N-14),420
2,CC(C)C[C@@H]1NC(=O)[C@H](CCN)NC(=O)[C@H](Cc2ccccc2)N(C)C(=O)[C@H](C)N(C)C(=O)[C@H](CCCN)NC(=O)[C@H](Cc2ccc(-c3ccccc3)cc2)NC(=O)[C@H](C(C)C)NC(=O)[C@H](Cc2c[nH]c3ccccc23)NC(=O)[C@H](CC(=O)O)NC(=O)[C@H](Cc2ccc(O)cc2)NC(=O)[C@H](Cc2ccccc2)NC(=O)CSC[C@@H](C(=O)N[C@@H](C)C(N)=O)NC(=O)[C@H]([C@@H](C)O)NC(=O)[C@H](C(C)C)NC1=O [Example 1341] ({CH2CO}-FYDWV[Bip][Orn][NMeA][NMeF][Dab]LVTCA-NH2; thioether N-14),200
3,CC(C)C[C@@H]1NC(=O)[C@H](Cc2cccc(C(F)(F)F)c2)NC(=O)[C@H](CC(=O)O)NC(=O)[C@H](Cc2ccc(O)cc2)NC(=O)[C@H](Cc2ccccc2)NC(=O)CSC[C@@H](C(=O)N[C@@H](C)C(N)=O)NC(=O)[C@H](CO)NC(=O)[C@H](C(C)C)NC(=O)[C@H](CC(C)C)NC(=O)[C@H](CC(N)=O)NC(=O)CN(C)C(=O)[C@H](C)N(C)C(=O)[C@H](C(C)C)NC(=O)[C@H](Cc2ccc(-c3ccccc3)cc2)NC1=O [Example 1081] ({CH2CO}-FYD[Phe(3-CF3)]L[Bip]V[NMeA][Sar]NLVSCA-NH2; thioether N-14),230
4,CC(C)C[C@@H]1NC(=O)[C@H](CCCNC(=N)N)NC(=O)[C@H](Cc2ccccc2)N(C)C(=O)[C@H](C)N(C)C(=O)[C@H](C(C)C)NC(=O)[C@H](Cc2ccc(-c3ccccc3)cc2)NC(=O)[C@H](C(C)C)NC(=O)[C@H](Cc2c[nH]c3ccccc23)NC(=O)[C@H](CC(=O)O)NC(=O)[C@H](Cc2ccc(O)cc2)NC(=O)[C@H](Cc2ccccc2)NC(=O)CSC[C@@H](C(=O)NCC(N)=O)NC(=O)[C@H](CO)NC(=O)[C@H](C(C)C)NC1=O [Example 1206] ({CH2CO}-FYDWV[Bip]V[NMeA][NMeF]RLVSCG-NH2; thioether N-14),450
5,CC(C)C[C@@H]1NC(=O)[C@H](CCCNC(=N)N)NC(=O)[C@H](Cc2ccccc2)N(C)C(=O)[C@H](C)N(C)C(=O)[C@H](CCCNC(=N)N)NC(=O)[C@H](Cc2ccc(-c3ccccc3)cc2)NC(=O)[C@H](C(C)C)NC(=O)[C@H](Cc2c[nH]c3ccccc23)NC(=O)[C@H](CC(=O)O)NC(=O)[C@H](Cc2ccc(O)cc2)NC(=O)[C@H](Cc2ccccc2)NC(=O)CSC[C@@H](C(=O)N[C@H](C(N)=O)C(C)O)NC(=O)[C@H](CO)NC(=O)[C@H](C(C)C)NC1=O (stereo partly drawn) [Example 1063] ({CH2CO}-FYDWV[Bip]R[NMeA][NMeF]RLVSC[Thr(3ξ)]-NH2; thioether N-14),160
6,CC(C)C1NC(=O)[C@H](Cc2c[nH]c3ccccc23)NC(=O)[C@H](CC(=O)O)NC(=O)[C@H](Cc2ccncc2)NC(=O)[C@H](CN)NC(=O)CSC[C@@H](C(=O)N[C@@H](C)C(N)=O)NC(=O)[C@H]([C@@H](C)O)NC(=O)[C@H](C(C)C)NC(=O)[C@H](CC2CCCCC2)NC(=O)[C@H](CCN)NC(=O)[C@H](Cc2ccc(O)cc2)N(C)C(=O)[C@H](CCCN)NC(=O)[C@H](CCC(=O)O)NC(=O)[C@H](Cc2ccc(-c3ccccc3)cc2)NC1=O (stereo partly drawn) [Example 1451] ({CH2CO}-[Dap][4Pal]DW[ξV][Bip]E[Orn][NMeY][Dab][Cha]VTCA-NH2; thioether N-14),520
7,CC(C)C[C@@H]1NC(=O)[C@H](CCN)NC(=O)[C@H](Cc2ccccc2)N(C)C(=O)[C@H](C)N(C)C(=O)[C@H](CCCNC(=N)N)NC(=O)[C@H](Cc2ccc(-c3ccccc3)cc2)NC(=O)[C@H](C(C)C)NC(=O)[C@H](Cc2c[nH]c3ccccc23)NC(=O)[C@H](CC(=O)O)NC(=O)[C@H](Cc2ccc(O)cc2)NC(=O)[C@H](Cc2cccnc2)NC(=O)CSC[C@@H](C(=O)N[C@@H](C)C(N)=O)NC(=O)[C@H](CO)NC(=O)[C@H](C(C)C)NC1=O [Example 1306] ({CH2CO}-[3Pal]YDWV[Bip]R[NMeA][NMeF][Dab]LVSCA-NH2; thioether N-14),460
8,COC[C@@H]1NC(=O)[C@H](C(C)C)NC(=O)[C@H](CC(C)C)NC(=O)[C@H](CC(N)=O)NC(=O)CN(C)C(=O)[C@H](C)N(C)C(=O)[C@H](C(C)C)NC(=O)[C@H](Cc2ccc(-c3ccccc3)cc2)NC(=O)[C@H](CC(C)C)NC(=O)[C@H](Cc2c[nH]c3ccccc23)NC(=O)[C@H](CC(=O)O)NC(=O)[C@H](Cc2ccc(O)cc2)NC(=O)[C@H](Cc2ccccc2)NC(=O)CSC[C@@H](C(=O)N[C@@H](C)C(N)=O)NC1=O [Example 1123] ({CH2CO}-FYDWL[Bip]V[NMeA][Sar]NLVS(Me)CA-NH2; thioether N-14),440
9,CC(C)C[C@@H]1NC(=O)[C@H](CC(N)=O)NC(=O)CN(C)C(=O)[C@H](C)N(C)C(=O)[C@H](C(C)C)NC(=O)[C@H](Cc2ccc(-c3ccccc3)cc2)NC(=O)[C@H](CC(C)C)NC(=O)[C@H](Cc2c[nH]c3ccccc23)NC(=O)[C@H](CC(=O)O)NC(=O)[C@H](Cc2ccc(O)cc2)NC(=O)[C@H](Cc2ccccc2)NC(=O)CSC[C@@H](C(=O)NCC(N)=O)NC(=O)[C@H](CO)NC(=O)[C@H](C)NC1=O [Example 1111] ({CH2CO}-FYDWL[Bip]V[NMeA][Sar]NLASCG-NH2; thioether N-14),350
10,CC(C)C1NC(=O)[C@H](Cc2c[nH]c3ccccc23)NC(=O)[C@H](CC(=O)O)NC(=O)[C@H](Cc2ccc(OCC(=O)O)cc2)NC(=O)[C@H](CN)NC(=O)CSC[C@@H](C(=O)N[C@@H](C)C(N)=O)NC(=O)[C@H]([C@@H](C)O)NC(=O)[C@H](C(C)C)NC(=O)[C@H](CC2CCCCC2)NC(=O)[C@H](CCN)NC(=O)[C@H](Cc2ccccc2)N(C)C(=O)[C@H](CCCN)NC(=O)[C@H](CCC(=O)O)NC(=O)[C@H](Cc2ccc(-c3ccccc3)cc2)NC1=O (stereo partly drawn) [Example 1442] ({CH2CO}-[Dap]Y(Carboxymethyl)DW[ξV][Bip]E[Orn][NMeF][Dab][Cha]VTCA-NH2; thioether N-14),70
11,CC(C)C[C@@H]1NC(=O)[C@H](Cc2c[nH]c3ccccc23)NC(=O)[C@H](CC(=O)O)NC(=O)[C@H](Cc2ccc(O)cc2)NC(=O)[C@H](Cc2ccccc2)NC(=O)CSC[C@@H](C(=O)N[C@@H](C)C(N)=O)NC(=O)[C@H](CO)NC(=O)[C@H](C(C)C)NC(=O)[C@H](CC(C)C)NC(=O)[C@H](CC(N)=O)NC(=O)[C@H]2CCCN2C(=O)[C@H](C)N(C)C(=O)[C@H](CCC(=O)O)NC(=O)[C@H](Cc2ccc(-c3ccccc3)cc2)NC1=O [Example 1039] ({CH2CO}-FYDWL[Bip]E[NMeA][dP]NLVSCA-NH2; thioether N-14),70
12,COc1ccc(C[C@@H]2NC(=O)CSC[C@@H](C(=O)NCC(N)=O)NC(=O)[C@H](CO)NC(=O)[C@H](C(C)C)NC(=O)[C@H](CC(C)C)NC(=O)[C@H](CCCNC(=N)N)NC(=O)[C@H](Cc3ccccc3)N(C)C(=O)[C@H](C)N(C)C(=O)[C@H](CCCNC(=N)N)NC(=O)[C@H](Cc3ccc(-c4ccccc4)cc3)NC(=O)[C@H](C(C)C)NC(=O)[C@H](Cc3c[nH]c4ccccc34)NC(=O)[C@H](CC(=O)O)NC(=O)[C@H](Cc3ccc(O)cc3)NC2=O)cc1 [Example 1247] ({CH2CO}-Y(Me)YDWV[Bip]R[NMeA][NMeF]RLVSCG-NH2; thioether N-14),230
13,CC(C)C[C@@H]1NC(=O)[C@H](CCN)NC(=O)[C@H](Cc2ccccc2)N(C)C(=O)[C@H](C)N(C)C(=O)[C@H](CCCNC(=N)N)NC(=O)[C@H](Cc2ccc(-c3ccccc3)cc2)NC(=O)[C@H](C(C)C)NC(=O)[C@H](Cc2c[nH]c3ccccc23)NC(=O)[C@H](CC(=O)O)NC(=O)[C@H](Cc2ccc(O)cc2)NC(=O)[C@H](Cc2cnc[nH]2)NC(=O)CSC[C@@H](C(=O)NCC(N)=O)NC(=O)[C@H](CO)NC(=O)[C@H](C(C)C)NC1=O [Example 1314] ({CH2CO}-HYDWV[Bip]R[NMeA][NMeF][Dab]LVSCG-NH2; thioether N-14),90
14,CC(C)C[C@@H]1NC(=O)[C@H](CCCNC(=N)N)NC(=O)[C@H](Cc2ccccc2)N(C)C(=O)[C@H](C)N(C)C(=O)[C@H](CCCNC(N)=O)NC(=O)[C@H](Cc2ccc(-c3ccccc3)cc2)NC(=O)[C@H](C(C)C)NC(=O)[C@H](Cc2c[nH]c3ccccc23)NC(=O)[C@H](CC(=O)O)NC(=O)[C@H](Cc2ccc(O)cc2)NC(=O)[C@H](CC(N)=O)NC(=O)CSC[C@@H](C(=O)N[C@@H](C)C(N)=O)NC(=O)[C@H](CCCN)NC(=O)[C@H](C(C)C)NC1=O [Example 1371] ({CH2CO}-NYDWV[Bip][Cit][NMeA][NMeF]RLV[Orn]CA-NH2; thioether N-14),230
15,CC(C)C[C@@H]1NC(=O)[C@H](CCCNC(=N)N)NC(=O)[C@H](Cc2ccccc2)N(C)C(=O)[C@H](C)N(C)C(=O)[C@H](CCCNC(=N)N)NC(=O)[C@H](Cc2ccc(-c3ccccc3)cc2)NC(=O)[C@H](C(C)C)NC(=O)[C@H](Cc2c[nH]c3ccccc23)NC(=O)[C@H](CC(=O)O)NC(=O)[C@H](Cc2ccc(O)cc2)NC(=O)[C@H](Cc2ccc(OCC(=O)O)cc2)NC(=O)CSC[C@@H](C(=O)NCC(N)=O)NC(=O)[C@H](CO)NC(=O)[C@H](C(C)C)NC1=O [Example 1246] ({CH2CO}-Y(Carboxymethyl)YDWV[Bip]R[NMeA][NMeF]RLVSCG-NH2; thioether N-14),250
